The source of these data is PubChem BioAssay (NCI).

Some test systems named below: UACC-257 melanoma; OVCAR-3 ovarian; SNB-19 CNS; U251 CNS; A498 renal; UO-31 renal; PC-3 prostate; NCI-H23 lung; 786-0 renal; SF-268 CNS; T-47D breast.
What all share (experiment): growth of human tumour cells (NCI), 48 h

“And” between values parts separate entries of the source, which are not always exact repeats. Equal values may be shown once.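 Dose response: 5 concentrations. Exposure: 48 h. Format: 96-well plates. Endpoint: linear interpolation; highest concentration if not reached. At the GI50, growth is halved. At the TGI there is no net growth.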 Some results are limits rather than exact numbers.

Regarding `CNc1ccc2c(c1)[C@@]1(C)c3ccccc3[C@@H](C2)N1C`, the TGI with UACC-257 melanoma is 60.6 µM; in the assay with OVCAR-3 ovarian it was 50.5 µM; with SNB-19 CNS, more than 100 µM; with U251 CNS, 47.5 µM; in the assay on A498 renal it was 74 µM; with UO-31 renal it was more than 100 µM. Further, the TGI in the assay with PC-3 prostate was more than 100 µM; in the assay with NCI-H23 lung it was 61.5 µM; in the assay with 786-0 renal it was 34.3 µM; in the assay with SF-268 CNS, more than 100 µM; in the assay on T-47D breast, more than 100 µM.
With `Nc1cccc(/C=C/C(=O)N2CCN(CCOC(c3ccccc3)c3ccccc3)CC2)c1`, the TGI in the assay with UACC-257 melanoma turned out to be 31.5 µM; in the assay with OVCAR-3 ovarian it was 32 µM; in the assay on SNB-19 CNS, 32.4 µM; with U251 CNS, 29.3 µM; in the assay with A498 renal, 31.6 µM; in the assay on UO-31 renal it was 30.5 µM. Further, the TGI in the assay on PC-3 prostate was 28.9 µM; in the assay on NCI-H23 lung, 35.5 µM; with 786-0 renal, 30.3 µM; in the assay with SF-268 CNS, 35 µM; with T-47D breast it was 33.1 µM.
For `CC1=CC(=O)c2ccccc2C1=O`, the TGI amounted to 9.08 µM with UACC-257 melanoma; 23.4 µM in the assay with OVCAR-3 ovarian; 33.5 µM in the assay on SNB-19 CNS; 26.4 µM in the assay with U251 CNS; 39.1 µM with A498 renal; 14 µM with UO-31 renal. Also, the TGI in the assay with PC-3 prostate was determined as 16.4 µM; with NCI-H23 lung it was 19.4 µM; with 786-0 renal, 28.5 µM; in the assay with SF-268 CNS, 22.2 µM; with T-47D breast, 5.33 µM.
In the case of `CCCCCCCCC/C=C/C=C/C(=O)NCC(=O)NC1C(O)C(O)C(Nc2ncnc3nc[nH]c23)OC1C(O)CO` (configuration not stated), the TGI is 0.207 µM in the assay with UACC-257 melanoma; 0.0436 µM in the assay with OVCAR-3 ovarian; 0.0217 µM in the assay on U251 CNS; 0.0177 µM and 0.0219 µM with UO-31 renal; 0.00787 µM in the assay on PC-3 prostate; 0.176 µM and 0.256 µM with 786-0 renal. The compound further yielded a TGI in the assay with SF-268 CNS of 0.671 µM. Further, the GI50 with U251 CNS is 0.00214 µM; in the assay on UO-31 renal, 0.00344 µM; in the assay with NCI-H23 lung it was 0.0247 µM; in the assay on SF-268 CNS it was 0.00558 µM.
For the compound `C[C@H](CCC(=O)O)[C@H]1CC[C@@]2(C)[C@@H]3C(=O)C[C@H]4C(C)(C)[C@@H](O)CC[C@]4(C)[C@H]3C(=O)C[C@]12C`, the TGI in the assay on UACC-257 melanoma is more than 100 µM; in the assay on OVCAR-3 ovarian it was more than 100 µM; in the assay with SNB-19 CNS, more than 100 µM; in the assay on U251 CNS it was more than 100 µM; with A498 renal it was more than 100 µM; with UO-31 renal it was 30.2 µM. For the same compound, the TGI in the assay on PC-3 prostate, in the assay with NCI-H23 lung, with 786-0 renal, in the assay on SF-268 CNS and in the assay with T-47D breast was more than 100 µM in each case.
For `Cc1c(N2C(=O)CS(=O)(=O)C2c2cccc(Oc3ccccc3)c2)c(=O)n(-c2ccccc2)n1C` (configuration not stated), the TGI with UACC-257 melanoma is more than 100 µM; in the assay on OVCAR-3 ovarian, more than 100 µM; with SNB-19 CNS, more than 100 µM; with U251 CNS it was more than 100 µM; in the assay with A498 renal it was 55.9 µM; with UO-31 renal it was more than 100 µM. Also, the TGI with PC-3 prostate, in the assay with NCI-H23 lung, with SF-268 CNS and in the assay with T-47D breast was more than 100 µM throughout.
As for `CC1=NN(c2cccc(Cl)c2)C2(SCC(=O)N2c2nc3ccccc3s2)/C1=C\c1cccs1` (configuration not stated), the TGI in the assay with UACC-257 melanoma amounted to 64 µM; in the assay on OVCAR-3 ovarian, 86.8 µM; with U251 CNS it was 41.6 µM; in the assay on A498 renal, 59 µM; with UO-31 renal it was 60.2 µM; in the assay with PC-3 prostate, 65.6 µM. The TGI was 43.5 µM in the assay with NCI-H23 lung, 41.1 µM in the assay with 786-0 renal, 44 µM in the assay on SF-268 CNS and more than 100 µM in the assay on T-47D breast.
Take `COc1nc(C#CC2(O)CCCCC2)nc(OC)n1`: the TGI in the assay with UACC-257 melanoma is 31.7 µM; in the assay with OVCAR-3 ovarian it was 20.4 µM; with SNB-19 CNS, more than 100 µM; with U251 CNS it was 26.4 µM; in the assay with A498 renal, 31.2 µM; with UO-31 renal, 15.1 µM. Also, the TGI is 18.5 µM in the assay on PC-3 prostate; 27.1 µM in the assay with NCI-H23 lung; more than 100 µM in the assay on 786-0 renal; 40.7 µM in the assay with SF-268 CNS; more than 100 µM with T-47D breast.
Consider `C(=N\NC1=NCCN1)/c1ccc(-c2cn3cc(/C=N/NC4=NCCN4)ccc3n2)cc1`, for which the TGI is more than 100 µM with UACC-257 melanoma; more than 67 µM in the assay with OVCAR-3 ovarian; more than 61.8 µM in the assay on SNB-19 CNS; more than 64.9 µM in the assay with U251 CNS; more than 100 µM in the assay on A498 renal; 99.8 µM with UO-31 renal. Moreover, the TGI with PC-3 prostate was more than 59.4 µM; in the assay with NCI-H23 lung, more than 100 µM; in the assay on 786-0 renal it was more than 66.4 µM; with SF-268 CNS, more than 66.1 µM; with T-47D breast, more than 100 µM.
With `Nc1ccccc1S(=O)(=O)c1ccccc1`, the TGI with UACC-257 melanoma, in the assay with OVCAR-3 ovarian, in the assay with SNB-19 CNS, in the assay with U251 CNS, in the assay on A498 renal and with UO-31 renal was more than 100 µM throughout. The TGI with NCI-H23 lung and in the assay on SF-268 CNS was more than 100 µM throughout.
For `Nc1nc(SCCc2ccccc2)nc2nc3c(c(-c4ccccc4)c12)CCCC3`, the TGI in the assay with UACC-257 melanoma, in the assay with OVCAR-3 ovarian, with SNB-19 CNS, in the assay on U251 CNS, with UO-31 renal and in the assay with PC-3 prostate was more than 100 µM each time. Also, the TGI in the assay on NCI-H23 lung, with SF-268 CNS and in the assay with T-47D breast was more than 100 µM throughout.
Consider `COc1cc2c(ccc3c4cc(OC)c(OC)cc4c[n+](C)c23)cc1O`, for which the TGI in the assay with UACC-257 melanoma was more than 75 µM; in the assay on OVCAR-3 ovarian, 54.3 µM; in the assay on SNB-19 CNS, 32.4 µM; with U251 CNS, 2.94 µM; in the assay on A498 renal, 65.8 µM; in the assay on UO-31 renal, more than 75 µM. Moreover, the TGI in the assay with NCI-H23 lung stood at 68.3 µM; with SF-268 CNS, 6.09 µM.
